Test results as given in PubChem BioAssay AID248 (DTP/NCI, 2004).
Values joined by “and” are separate entries in the source; they are usually repeats but may differ in a detail not shown here. Equal entries are not always repeated. Toxic doses and inconclusive results are not listed. Rule as the data show it: active = T/C of 150% or more; inactive = T/C below 125%.

Tested on: L1210 leukemia ip in BDF1 mice, survival T/C
Assay: NCI In Vivo Anticancer Drug Screen. Data for tumor model L1210 Leukemia (intraperitoneal) in B6D2F1 (BDF1) mice
Conditions: endpoint: mean survival time, higher = longer survival
Summary of the method: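 Transplantable tumor model; survival measured in treated vs vehicle control mice. Value = treated/control.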

[1] = dose: 100.0 mg/kg/injection, schedule: Q01DX009 (ip), vehicle: Klucel (hydroxypropylcellulose) (HPC)
[2] = dose: 100.0 mg/kg/injection, schedule: Q04DX003 (ip), vehicle: Klucel (hydroxypropylcellulose) (HPC)
[3] = dose: 200.0 mg/kg/injection, schedule: Q01DX009 (ip), vehicle: Klucel (hydroxypropylcellulose) (HPC)
[4] = dose: 200.0 mg/kg/injection, schedule: Q04DX003 (ip), vehicle: Klucel (hydroxypropylcellulose) (HPC)
[5] = dose: 400.0 mg/kg/injection, schedule: Q04DX003 (ip), vehicle: Klucel (hydroxypropylcellulose) (HPC)
[6] = dose: 400.0 mg/kg/injection, schedule: Q01DX009 (ip), vehicle: Klucel (hydroxypropylcellulose) (HPC)
[7] = dose: 75.0 mg/kg/injection, schedule: Q01DX001 (ip), vehicle: saline
[8] = dose: 150.0 mg/kg/injection, schedule: Q01DX001 (ip), vehicle: saline
[9] = dose: 100.0 mg/kg/injection, schedule: Q01DX001 (ip), vehicle: Klucel (hydroxypropylcellulose) (HPC)
[10] = dose: 200.0 mg/kg/injection, schedule: Q01DX001 (ip), vehicle: Klucel (hydroxypropylcellulose) (HPC)
[11] = dose: 400.0 mg/kg/injection, schedule: Q01DX001 (ip), vehicle: Klucel (hydroxypropylcellulose) (HPC)
[12] = dose: 100.0 mg/kg/injection, schedule: Q01DX009 (ip), vehicle: saline with Tween-80
[13] = dose: 200.0 mg/kg/injection, schedule: Q01DX009 (ip), vehicle: saline with Tween-80
[14] = dose: 50.0 mg/kg/injection, schedule: Q01DX009 (ip), vehicle: saline with Tween-80
[15] = dose: 100.0 mg/kg/injection, schedule: Q01DX001 (ip), vehicle: saline
[16] = dose: 200.0 mg/kg/injection, schedule: Q01DX001 (ip), vehicle: saline

Measured: T/C

CCN(CC)C(=O)C1CN2CCc3cc(OC)c(OC)cc3C2CC1OC(C)=O (configuration not stated)
inactive: dose: 6.25 mg/kg/injection, schedule: Q01DX009 (ip), vehicle: Klucel (hydroxypropylcellulose) (HPC) 94 % of control | dose: 12.5 mg/kg/injection, schedule: Q01DX009 (ip), vehicle: Klucel (hydroxypropylcellulose) (HPC) 97 % of control | dose: 25.0 mg/kg/injection, schedule: Q01DX001 (ip), vehicle: water 92 % of control | dose: 25.0 mg/kg/injection, schedule: Q01DX009 (ip), vehicle: Klucel (hydroxypropylcellulose) (HPC) 94 % of control | dose: 25.0 mg/kg/injection, schedule: Q04DX003 (ip), vehicle: Klucel (hydroxypropylcellulose) (HPC) 103 % of control | dose: 50.0 mg/kg/injection, schedule: Q01DX001 (ip), vehicle: water 111 % of control | dose: 50.0 mg/kg/injection, schedule: Q01DX009 (ip), vehicle: Klucel (hydroxypropylcellulose) (HPC) 103 % of control | dose: 50.0 mg/kg/injection, schedule: Q04DX003 (ip), vehicle: Klucel (hydroxypropylcellulose) (HPC) 100 % of control | dose: 100.0 mg/kg/injection, schedule: Q01DX001 (ip), vehicle: water 97 % of control | [1] 103 % of control | [2] 97 % of control | [3] 115 % of control

c1cc[c]([GeH]([c]2ccccc2)[c]2ccccc2)cc1
inactive: dose: 64.0 mg/kg/injection, schedule: Q04DX002 (ip), vehicle: saline with Tween-80 91 % of control | dose: 160.0 mg/kg/injection, schedule: Q04DX002 (ip), vehicle: saline with Tween-80 94 % of control | dose: 400.0 mg/kg/injection, schedule: Q04DX002 (ip), vehicle: saline with Tween-80 97 % of control

C/C(=C\c1ccccc1Cl)[N+](=O)[O-]
inactive: [1] 95 % of control | [2] 100 % of control | [3] 93 % of control | [4] 96 % of control | [5] 105 % of control

O=C(O)COc1ccc(C2CCc3ccccc32)cc1 (configuration not stated)
inactive: dose: 75.0 mg/kg/injection, schedule: Q01DX001 (ip), vehicle: Klucel (hydroxypropylcellulose) (HPC) 104 % of control | dose: 150.0 mg/kg/injection, schedule: Q01DX001 (ip), vehicle: Klucel (hydroxypropylcellulose) (HPC) 101 % of control | dose: 300.0 mg/kg/injection, schedule: Q01DX001 (ip), vehicle: Klucel (hydroxypropylcellulose) (HPC) 101 % of control

CC/C(=C\c1cccc([N+](=O)[O-])c1)C(=O)O
inactive: [1] 97 % of control | [2] 96 % of control | [3] 92 % of control | [4] 95 % of control | [6] 100 % of control | [5] 95 % of control

Cc1[nH]nc2c(=O)[nH]c(=O)[nH]c12
inactive: [7] 100 % of control | [8] 103 % of control | dose: 300.0 mg/kg/injection, schedule: Q01DX001 (ip), vehicle: saline 107 % of control

CC(Br)c1ccc(S(=O)(=O)F)cc1 (configuration not stated)
inactive: dose: 100.0 mg/kg/injection, schedule: Q04DX002 (ip), vehicle: saline with Tween-80 104 % of control | dose: 200.0 mg/kg/injection, schedule: Q04DX002 (ip), vehicle: saline with Tween-80 101 % of control

CCOc1ccc(C(c2ccc(OCC)cc2)C(Cl)(Cl)Cl)cc1
inactive: [9] 106 % of control | [10] 100 % of control | [11] 100 % of control

O=C(O)c1cccc(NC(=O)C(F)(F)F)c1
inactive: [9] 94 % of control | [2] 102 % of control | [10] 96 % of control | [4] 108 % of control | [11] 100 % of control | [5] 103 % of control

OC1CCOC1 (configuration not stated)
inactive: [12] 98 % of control | [13] 97 % of control | dose: 400.0 mg/kg/injection, schedule: Q01DX009 (ip), vehicle: saline with Tween-80 98 % of control

Cc1nc2cc(Cc3ccccc3)ccc2o1
inactive: dose: 100.0 mg/kg/injection, schedule: Q04DX003 (ip), vehicle: saline sonified 107 % of control | dose: 200.0 mg/kg/injection, schedule: Q04DX003 (ip), vehicle: saline sonified 105 % of control | dose: 400.0 mg/kg/injection, schedule: Q04DX003 (ip), vehicle: saline sonified 107 % of control

CCN(CC)c1cc(Cl)c(C=O)cc1Br
inactive: [1] 98 % of control | [2] 105 % of control | [3] 100 % of control | [4] 98 % of control | [6] 100 % of control | [5] 104 % of control

COC(=O)C1C2C=CC(O2)C1C(=O)OC (configuration not stated)
inactive: dose: 100.0 mg/kg/injection, schedule: Q01DX009 (ip), vehicle: carboxymethylcellulose (CMC) 98 % of control | dose: 100.0 mg/kg/injection, schedule: Q01DX009 (ip), vehicle: other 101 % of control | dose: 200.0 mg/kg/injection, schedule: Q01DX009 (ip), vehicle: carboxymethylcellulose (CMC) 102 % of control | dose: 200.0 mg/kg/injection, schedule: Q01DX009 (ip), vehicle: other 102 % of control | dose: 400.0 mg/kg/injection, schedule: Q01DX009 (ip), vehicle: carboxymethylcellulose (CMC) 96 % of control | dose: 400.0 mg/kg/injection, schedule: Q01DX009 (ip), vehicle: other 101 % of control

Cc1c2ccncc2cc2c3ccccc3n(CC3CO3)c12 (configuration not stated)
inactive: dose: 37.5 mg/kg/injection, schedule: Q01DX009 (ip), vehicle: Klucel (hydroxypropylcellulose) (HPC) 96 % of control | dose: 37.5 mg/kg/injection, schedule: Q04DX003 (ip), vehicle: Klucel (hydroxypropylcellulose) (HPC) 104 % of control | dose: 75.0 mg/kg/injection, schedule: Q01DX009 (ip), vehicle: Klucel (hydroxypropylcellulose) (HPC) 96 % of control | dose: 75.0 mg/kg/injection, schedule: Q04DX003 (ip), vehicle: Klucel (hydroxypropylcellulose) (HPC) 106 % of control and 119 % of control | dose: 150.0 mg/kg/injection, schedule: Q01DX009 (ip), vehicle: Klucel (hydroxypropylcellulose) (HPC) 100 % of control | dose: 150.0 mg/kg/injection, schedule: Q04DX003 (ip), vehicle: Klucel (hydroxypropylcellulose) (HPC) 113 % of control | dose: 300.0 mg/kg/injection, schedule: Q01DX009 (ip), vehicle: Klucel (hydroxypropylcellulose) (HPC) 102 % of control

CC([CH2][Hg][Cl])c1ccccc1 (configuration not stated)
inactive: dose: 3.13 mg/kg/injection, schedule: Q01DX009 (ip), vehicle: saline with Tween-80 95 % of control | dose: 6.25 mg/kg/injection, schedule: Q01DX009 (ip), vehicle: saline with Tween-80 92 % of control | dose: 6.25 mg/kg/injection, schedule: Q04DX003 (ip), vehicle: Klucel (hydroxypropylcellulose) (HPC) 101 % of control | dose: 12.5 mg/kg/injection, schedule: Q01DX009 (ip), vehicle: saline with Tween-80 90 % of control | dose: 12.5 mg/kg/injection, schedule: Q04DX003 (ip), vehicle: Klucel (hydroxypropylcellulose) (HPC) 119 % of control

Nc1c(Br)cc(F)cc1[N+](=O)[O-]
inactive: [2] 97 % of control | [4] 96 % of control | [5] 96 % of control

OC1(CCCc2ccccc2)CCNCC1
inactive: [7] 104 % of control | [8] 110 % of control

CC(=O)N/N=C/c1cccc([N+](=O)[O-])c1
inactive: [14] 102 % of control | [12] 97 % of control | [13] 94 % of control

OCC1OC(n2ccc3c2ncn2nnnc32)C(O)C1O (configuration not stated)
inactive: dose: 12.5 mg/kg/injection, schedule: Q01DX009 (ip), vehicle: saline 91 % of control | dose: 12.5 mg/kg/injection, schedule: Q04DX003 (ip), vehicle: saline 102 % of control | dose: 25.0 mg/kg/injection, schedule: Q01DX009 (ip), vehicle: saline 102 % of control | dose: 25.0 mg/kg/injection, schedule: Q04DX003 (ip), vehicle: saline 107 % of control | dose: 50.0 mg/kg/injection, schedule: Q04DX003 (ip), vehicle: saline 105 % of control

COC(=O)C(=O)CC(=O)c1cccc(Cl)c1
inactive: dose: 10.0 mg/kg/injection, schedule: Q04DX002 (ip), vehicle: Klucel (hydroxypropylcellulose) (HPC) 92 % of control | dose: 20.0 mg/kg/injection, schedule: Q04DX002 (ip), vehicle: Klucel (hydroxypropylcellulose) (HPC) 96 % of control | dose: 40.0 mg/kg/injection, schedule: Q04DX002 (ip), vehicle: Klucel (hydroxypropylcellulose) (HPC) 105 % of control

COc1cccc(CC(C)(C)CCO)c1
inactive: [14] 102 % of control | [12] 100 % of control | [13] 96 % of control

Nc1ncnc2nc(I)[nH]c12
inactive: [15] 93 % of control | [16] 98 % of control

Cc1nn(C2CC(O)C(CO)O2)c(=O)[nH]c1=O (configuration not stated)
inactive: [15] 98 % of control | [16] 95 % of control | dose: 400.0 mg/kg/injection, schedule: Q01DX001 (ip), vehicle: saline 93 % of control
